Experimental data taken from the NIST ThermoML archive (doi:10.1021/je900227j).

Details: 101.33 kPa, Liquid; for speed of sound: Pulse-echo method; for mass density: Pycnometric method

CCCCBr [1-bromobutane]
Details | mass density [kg/m3] | speed of sound [m/s]
243.38 K | – | 1195.3
253.15 K | 1326.49 | –
263.15 K | 1313.8 | –
273.15 K | 1300.5 | –
273.26 K | – | 1091
283.15 K | 1286.37 | –
293.15 K | 1272.7 | –
298.15 K | 1265.66 | –
303.15 K | 1258.55 | –
323.15 K | 1229.53 | –
323.22 K | – | 925.99
343.22 K | – | 861.16
363.23 K | – | 797.6
383.31 K | – | 735.21

CCCCCCCCCCBr [1-bromodecane]
Details | mass density [kg/m3] | speed of sound [m/s]
253.4 K | 1105.66 | –
263.3 K | 1096.34 | –
273.25 K | 1087.32 | –
283.2 K | 1078.06 | –
293.15 K | 1069.01 | –
298.15 K | 1064.47 | –
323.15 K | 1041.72 | –
323.2 K | – | 1123.8
343.15 K | 1023.01 | –
353.19 K | – | 1032.2
363.15 K | 1004.33 | –
383.15 K | 985.41 | –
383.22 K | – | 944.49
403.23 K | – | 888.22
403.25 K | 966.27 | –
423.27 K | – | 833.21
423.3 K | 946.49 | –

CCCCCCCCCCCCBr [1-bromododecane]
Details | mass density [kg/m3] | speed of sound [m/s]
273.15 K | 1056.54 | –
273.32 K | – | 1323.5
283.15 K | 1048.47 | –
293.15 K | 1039.81 | –
303.15 K | 1031.27 | –
303.21 K | – | 1224.8
323.15 K | 1013.99 | –
323.18 K | – | 1161.2
343.15 K | 996.24 | –
353.15 K | – | 1069.7
363.15 K | 979.02 | –
383.15 K | 961.54 | –
383.17 K | – | 982.95
393.15 K | 952.43 | –
403.19 K | – | 926.37
413.15 K | 933.49 | –
423.14 K | – | 871.74
423.15 K | 923.65 | –

CCCCCCCBr [1-bromoheptane]
Details | mass density [kg/m3] | speed of sound [m/s]
243.74 K | – | 1308.3
253.15 K | 1180.21 | –
263.15 K | 1169.57 | –
273.15 K | 1159.15 | –
273.33 K | – | 1207.2
283.15 K | 1148.71 | –
298.15 K | 1132.91 | –
303.19 K | – | 1108.7
323.14 K | – | 1045.1
323.15 K | 1105.97 | –
343.15 K | 1084.54 | –
353.14 K | – | 952.86
363.15 K | 1061.75 | –
383.15 K | 1038.55 | –
383.17 K | – | 863.47
393.15 K | 1026.63 | –
423.22 K | – | 748.09

CCCCCCBr [1-bromohexane]
Details | mass density [kg/m3] | speed of sound [m/s]
243.6 K | – | 1273.8
253.15 K | 1217.95 | –
263.15 K | 1206.62 | –
273.15 K | 1195.28 | –
273.31 K | – | 1172.8
283.15 K | 1183.82 | –
298.15 K | 1166.83 | –
303.2 K | – | 1073.6
323.15 K | 1137.27 | –
323.2 K | – | 1009.3
343.15 K | 1113.66 | –
353.16 K | – | 916.03
383.15 K | 1066.11 | –
383.19 K | – | 826.35
403.15 K | 1040.91 | –
403.25 K | – | 767.47
423.23 K | – | 709.98

CCCCCCCCCBr [1-bromononane]
Details | mass density [kg/m3] | speed of sound [m/s]
253.15 K | 1124.52 | –
253.46 K | – | 1329.9
263.2 K | 1115.2 | –
273.15 K | 1105.5 | –
273.29 K | – | 1262.7
283.15 K | 1096.09 | –
293.15 K | 1086.58 | –
298.15 K | 1082.2 | –
303.15 K | – | 1165.1
323.14 K | – | 1101.1
323.15 K | 1058.34 | –
343.15 K | 1038.92 | –
353.1 K | – | 1009.9
363.15 K | 1019.42 | –
383.05 K | – | 921.46
383.15 K | 999.36 | –
393.15 K | 989.17 | –
402.98 K | – | 864.42
413.15 K | 968.48 | –
422.72 K | – | 808.79

CCCCCCCCBr [1-bromooctane]
Details | mass density [kg/m3] | speed of sound [m/s]
243.61 K | – | 1336.3
253.15 K | 1151.11 | –
263.15 K | 1140.86 | –
273.15 K | 1131.22 | –
273.28 K | – | 1235.4
283.15 K | 1121.21 | –
293.15 K | 1111.01 | –
303.15 K | 1100.89 | –
303.16 K | – | 1137.2
323.02 K | – | 1073.8
323.15 K | 1080.6 | –
343.15 K | 1060.45 | –
352.91 K | – | 981.92
363.15 K | 1039.47 | –
382.88 K | – | 892.87
383.15 K | 1018.75 | –
393.15 K | 1008.38 | –
402.55 K | – | 835.51
423.04 K | – | 778.72

CCCCCBr [1-bromopentane]
Details | mass density [kg/m3] | speed of sound [m/s]
243.73 K | – | 1240
253.15 K | 1260.65 | –
263.15 K | 1249.88 | –
273.32 K | – | 1137.5
283.15 K | 1226.85 | –
293.15 K | 1214.88 | –
303.15 K | 1202.6 | –
303.22 K | – | 1037.1
323.15 K | 1177.13 | –
323.17 K | – | 972.37
343.15 K | 1150.97 | –
353.18 K | – | 877.57
363.15 K | 1124.69 | –
383.15 K | 1097.39 | –
383.23 K | – | 785.49
393.15 K | 1083.35 | –
403.28 K | – | 725.54
423.48 K | – | 666.58

CCCBr [1-bromopropane]
Details | mass density [kg/m3] | speed of sound [m/s]
243.15 K | 1431.07 | –
243.76 K | – | 1144.8
253.15 K | 1415.43 | –
263.15 K | 1400.28 | –
263.38 K | – | 1075
273.15 K | 1385.33 | –
273.31 K | – | 1040.1
283.15 K | 1369.4 | –
283.26 K | – | 1005.5
293.15 K | 1352.89 | –
293.22 K | – | 971.22
298.15 K | 1344.48 | –
298.21 K | – | 954.05
323.21 K | – | 870.16
343.21 K | – | 804.19
363.23 K | – | 739.38
383.47 K | – | 674.94

CCCCCCCCCCCBr [1-bromoundecane]
Details | mass density [kg/m3] | speed of sound [m/s]
273.15 K | 1067.26 | –
273.42 K | – | 1307
283.2 K | 1058.34 | –
293.2 K | 1049.49 | –
298.15 K | 1045.03 | –
303.22 K | – | 1209
323.19 K | – | 1145.6
323.2 K | 1023.21 | –
343.2 K | 1005.75 | –
353.14 K | – | 1054.4
363.2 K | 987.93 | –
383.14 K | – | 966.59
383.2 K | 969.56 | –
403.13 K | – | 909.71
403.25 K | 951.27 | –
423.13 K | – | 854.45
